PubChem BioAssay (NCI)
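Interpolation was linear, between the two tested concentrations surrounding the appropriate level; five concentrations were tested over 48 hours in 96-well plates. GI50: concentration for 50% inhibition of growth. TGI is the concentration that stops growth completely.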

Legend:
Experiment in all cases: NCI-60 cell line screen, 48 h
SF-268 CNS = tested on: SF-268 CNS
HL-60(TB) leukemia = tested on: HL-60(TB) leukemia
COLO 205 colon = tested on: COLO 205 colon
OVCAR-5 ovarian = tested on: OVCAR-5 ovarian
U251 CNS = tested on: U251 CNS
RPMI-8226 leukemia = tested on: RPMI-8226 leukemia
IGROV1 ovarian = tested on: IGROV1 ovarian
NCI-H460 lung = tested on: NCI-H460 lung
SK-OV-3 ovarian = tested on: SK-OV-3 ovarian
SF-539 CNS = tested on: SF-539 CNS
SNB-19 CNS = tested on: SNB-19 CNS
OVCAR-3 ovarian = tested on: OVCAR-3 ovarian
M14 melanoma = tested on: M14 melanoma
T-47D breast = tested on: T-47D breast
CAKI-1 renal = tested on: CAKI-1 renal
MDA-MB-435 = tested on: MDA-MB-435
PC-3 prostate = tested on: PC-3 prostate
HCT-15 colon = tested on: HCT-15 colon
MCF7 breast = tested on: MCF7 breast
K-562 leukemia = tested on: K-562 leukemia
SN12C renal = tested on: SN12C renal
NCI-H23 lung = tested on: NCI-H23 lung
UACC-62 melanoma = tested on: UACC-62 melanoma
MALME-3M melanoma = tested on: MALME-3M melanoma
SW-620 colon = tested on: SW-620 colon
UACC-257 melanoma = tested on: UACC-257 melanoma
SNB-75 CNS = tested on: SNB-75 CNS
HOP-62 NSCLC = tested on: HOP-62 NSCLC
CCRF-CEM leukemia = tested on: CCRF-CEM leukemia
SR leukemia = tested on: SR leukemia
MOLT-4 leukemia = tested on: MOLT-4 leukemia
BT-549 breast = tested on: BT-549 breast
A498 renal = tested on: A498 renal
HCT-116 colon = tested on: HCT-116 colon
786-0 renal = tested on: 786-0 renal
TK-10 renal = tested on: TK-10 renal
SK-MEL-28 melanoma = tested on: SK-MEL-28 melanoma
NCI-H522 lung = tested on: NCI-H522 lung
HT29 colon = tested on: HT29 colon
NCI/ADR-RES ovarian = tested on: NCI/ADR-RES ovarian
HCC-2998 colon = tested on: HCC-2998 colon
RXF 393 renal = tested on: RXF 393 renal
OVCAR-4 ovarian = tested on: OVCAR-4 ovarian
UO-31 renal = tested on: UO-31 renal
NCI-H226 lung = tested on: NCI-H226 lung
ACHN renal = tested on: ACHN renal
DU-145 prostate = tested on: DU-145 prostate
SK-MEL-2 melanoma = tested on: SK-MEL-2 melanoma
HS 578T breast = tested on: HS 578T breast
SK-MEL-5 melanoma = tested on: SK-MEL-5 melanoma
HOP-92 NSCLC = tested on: HOP-92 NSCLC

`N=C(N)c1ccc(-c2ccc(-c3cccs3)o2)cc1` was tested, and the GI50 (SF-268 CNS) was 2.19 µM, the TGI (SF-268 CNS) was 5.17 µM and the GI50 (HL-60(TB) leukemia) was 1.82 µM. It also gave a TGI (HL-60(TB) leukemia) of 4.11 µM, a GI50 (COLO 205 colon) of 1.91 µM and a TGI (COLO 205 colon) of 3.49 µM. For the same molecule, the GI50 (OVCAR-5 ovarian) was 2.02 µM, the TGI (OVCAR-5 ovarian) was 6.2 µM and the GI50 (U251 CNS) was 1.76 µM. It also gave a TGI (U251 CNS) of 3.37 µM, a GI50 (RPMI-8226 leukemia) of 2.12 µM and a TGI (RPMI-8226 leukemia) of 4.98 µM. It also gave a GI50 (IGROV1 ovarian) of 1.92 µM, a TGI (IGROV1 ovarian) of 3.83 µM and a GI50 (NCI-H460 lung) of 1.79 µM. The TGI (NCI-H460 lung) was 3.41 µM, the GI50 (SK-OV-3 ovarian) was 2.4 µM and the TGI (SK-OV-3 ovarian) was 5.77 µM. For the same molecule, the GI50 (SF-539 CNS) was 1.68 µM, the TGI (SF-539 CNS) was 3.14 µM and the GI50 (SNB-19 CNS) was 2.43 µM. It also gave a TGI (SNB-19 CNS) of 7.81 µM, a GI50 (OVCAR-3 ovarian) of 2.25 µM and a TGI (OVCAR-3 ovarian) of 4.92 µM. The GI50 (M14 melanoma) was 1.9 µM, the TGI (M14 melanoma) was 3.39 µM and the GI50 (T-47D breast) was 2.17 µM. The TGI (T-47D breast) was 4.88 µM, the GI50 (CAKI-1 renal) was 2.14 µM and the TGI (CAKI-1 renal) was 5.2 µM. It also gave a GI50 (MDA-MB-435) of 1.76 µM, a TGI (MDA-MB-435) of 3.39 µM and a GI50 (PC-3 prostate) of 2.13 µM. It also gave a TGI (PC-3 prostate) of 5.56 µM, a GI50 (HCT-15 colon) of 1.86 µM and a TGI (HCT-15 colon) of 3.8 µM. It also gave a GI50 (MCF7 breast) of 1.69 µM, a TGI (MCF7 breast) of 3.29 µM and a GI50 (K-562 leukemia) of 2.27 µM. It also gave a TGI (K-562 leukemia) of 5.72 µM, a GI50 (SN12C renal) of 1.97 µM and a TGI (SN12C renal) of 4.38 µM. It also gave a GI50 (NCI-H23 lung) of 3.63 µM, a TGI (NCI-H23 lung) of 13.2 µM and a GI50 (UACC-62 melanoma) of 1.75 µM. It also gave a TGI (UACC-62 melanoma) of 3.35 µM, a GI50 (MALME-3M melanoma) of 1.91 µM and a TGI (MALME-3M melanoma) of 3.42 µM. The GI50 (SW-620 colon) was 1.77 µM, the TGI (SW-620 colon) was 3.37 µM and the GI50 (UACC-257 melanoma) was 1.98 µM. It also gave a TGI (UACC-257 melanoma) of 3.63 µM, a GI50 (SNB-75 CNS) of 1.71 µM and a TGI (SNB-75 CNS) of 3.5 µM. For the same molecule, the GI50 (HOP-62 NSCLC) was 2.04 µM, the TGI (HOP-62 NSCLC) was 4.32 µM and the GI50 (CCRF-CEM leukemia) was 2.33 µM. It also gave a TGI (CCRF-CEM leukemia) of 5.9 µM, a GI50 (SR leukemia) of 2.99 µM and a TGI (SR leukemia) of 8.54 µM. For the same molecule, the GI50 (MOLT-4 leukemia) was 2.34 µM, the TGI (MOLT-4 leukemia) was 4.89 µM and the GI50 (BT-549 breast) was 2.05 µM. For the same molecule, the TGI (BT-549 breast) was 4.02 µM, the GI50 (A498 renal) was 1.8 µM and the TGI (A498 renal) was 3.86 µM. The GI50 (HCT-116 colon) was 1.83 µM, the TGI (HCT-116 colon) was 3.23 µM and the GI50 (786-0 renal) was 1.89 µM. For the same molecule, the TGI (786-0 renal) was 3.44 µM, the GI50 (TK-10 renal) was 1.95 µM and the TGI (TK-10 renal) was 3.44 µM. The GI50 (SK-MEL-28 melanoma) was 1.71 µM, the TGI (SK-MEL-28 melanoma) was 3.11 µM and the GI50 (NCI-H522 lung) was 2.01 µM. The TGI (NCI-H522 lung) was 3.89 µM, the GI50 (HT29 colon) was 1.89 µM and the TGI (HT29 colon) was 3.7 µM. The GI50 (NCI/ADR-RES ovarian) was 2.88 µM, the TGI (NCI/ADR-RES ovarian) was 7.63 µM and the GI50 (HCC-2998 colon) was 1.87 µM. For the same molecule, the TGI (HCC-2998 colon) was 3.41 µM, the GI50 (RXF 393 renal) was 1.69 µM and the TGI (RXF 393 renal) was 3.46 µM. It also gave a GI50 (OVCAR-4 ovarian) of 2.35 µM, a TGI (OVCAR-4 ovarian) of 5.72 µM and a GI50 (UO-31 renal) of 1.9 µM. The TGI (UO-31 renal) was 3.74 µM, the GI50 (NCI-H226 lung) was 2.07 µM and the TGI (NCI-H226 lung) was 5.13 µM. For the same molecule, the GI50 (ACHN renal) was 1.86 µM, the TGI (ACHN renal) was 3.51 µM and the GI50 (DU-145 prostate) was 2.91 µM. For the same molecule, the TGI (DU-145 prostate) was 7.31 µM, the GI50 (SK-MEL-2 melanoma) was 2.19 µM and the TGI (SK-MEL-2 melanoma) was 4.04 µM. It also gave a GI50 (HS 578T breast) of 2.14 µM, a TGI (HS 578T breast) of 5.25 µM and a GI50 (SK-MEL-5 melanoma) of 1.65 µM. The TGI (SK-MEL-5 melanoma) was 3.02 µM, the GI50 (HOP-92 NSCLC) was 1.4 µM and the TGI (HOP-92 NSCLC) was 3.1 µM.
